Test results taken from patent publication US20240270821A1, “GIP/GLP1/GCG TRI-RECEPTOR AGONISTS AND USES THEREOF” (priority 2023, published 2024).
Where two headings read alike, the source gives them in different places. Starred links: 1 amine or outer side, 2 acyl side, 3 side chain; linkers in the order of their positions; H or OH if unused. Non-standard residues stand in square brackets, D forms with d. Residues, ends and D or L forms follow the SMILES beside them. Groups on a side chain read outwards from the residue. *: point of attachment. C18 diacid = O=C(O)CCCCCCCCCCCCCCCCC(=O)*; αMePhe(2-F) = C[C@](N)(Cc1ccccc1F)C(=O)O; γGlu = O=C(O)[C@H](CCC(=O)[*:2])N[*:1]; αMe4Pal = C[C@](N)(Cc1ccncc1)C(=O)O; αMeY = C[C@](N)(Cc1ccc(O)cc1)C(=O)O; Hyp = O=C(O)[C@@H]1C[C@@H](O)CN1; αMeF = C[C@](N)(Cc1ccccc1)C(=O)O; 4Pal = N[C@@H](Cc1ccncc1)C(=O)O; αMeL = CC(C)C[C@](C)(N)C(=O)O; αMeS = C[C@](N)(CO)C(=O)O; Orn = NCCC[C@H](N)C(=O)O; AEEA = NCCOCCOCC(=O)O; Aib = CC(C)(N)C(=O)O

Experiments:
Type in all cases: cell-based
hGcgR = hGcgR (Homo sapiens, UniProt P47871); experiment: Functional cAMP activation in the presence of 0.1% casein (no HSA); conditions: read-out: Relative cAMP EC50, hGcgR;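 also: intracellular cAMP rise after 30 min at 37 °C, read by HTRF against a cAMP standard curve, scaled from buffer only (0%) to maximal control ligand response (100%)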
hGcgR, sequence (P47871 26-477): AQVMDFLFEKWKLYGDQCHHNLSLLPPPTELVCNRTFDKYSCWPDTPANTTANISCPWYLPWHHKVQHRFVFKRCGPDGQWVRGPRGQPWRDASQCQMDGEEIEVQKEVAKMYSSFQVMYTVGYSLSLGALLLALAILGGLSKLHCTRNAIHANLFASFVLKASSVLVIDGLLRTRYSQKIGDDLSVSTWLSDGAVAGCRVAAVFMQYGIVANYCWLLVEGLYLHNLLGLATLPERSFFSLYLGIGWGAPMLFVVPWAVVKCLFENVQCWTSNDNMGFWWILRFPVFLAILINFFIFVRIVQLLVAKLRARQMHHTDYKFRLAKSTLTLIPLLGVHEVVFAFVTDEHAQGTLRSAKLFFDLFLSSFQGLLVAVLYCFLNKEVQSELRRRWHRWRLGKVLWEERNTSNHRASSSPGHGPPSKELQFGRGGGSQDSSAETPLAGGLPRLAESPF

human GcgR = human GcgR (Homo sapiens, UniProt P47871); experiment: Functional cAMP activity in the presence of 1% HSA; conditions: read-out: cAMP Rel EC50, hGcgR
human GcgR, sequence (P47871 26-477): as above

hGLP-1R [1] = biological target: T1, hGLP-1R (Homo sapiens, UniProt P43220); experiment: Functional cAMP activity in the presence of 1% HSA; conditions: read-out: cAMP Rel EC50, hGLP-1R
T1 sequence (P43220 24-463): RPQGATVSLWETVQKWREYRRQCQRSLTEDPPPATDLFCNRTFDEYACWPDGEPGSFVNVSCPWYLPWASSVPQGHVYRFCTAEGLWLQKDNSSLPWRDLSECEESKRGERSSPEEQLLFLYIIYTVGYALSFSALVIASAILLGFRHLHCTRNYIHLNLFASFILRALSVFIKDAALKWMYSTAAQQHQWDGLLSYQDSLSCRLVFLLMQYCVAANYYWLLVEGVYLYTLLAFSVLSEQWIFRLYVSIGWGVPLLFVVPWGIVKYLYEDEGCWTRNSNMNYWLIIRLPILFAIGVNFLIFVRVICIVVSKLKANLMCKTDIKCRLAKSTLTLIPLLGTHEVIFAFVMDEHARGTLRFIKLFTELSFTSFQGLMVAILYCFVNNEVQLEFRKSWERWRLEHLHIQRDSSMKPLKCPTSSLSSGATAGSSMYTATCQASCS

hGLP-1R [2] = biological target: T1, hGLP-1R; experiment: Functional cAMP activation in the presence of 0.1% casein (no HSA); conditions: read-out: Relative cAMP EC50, hGLP-1R;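 as to Relative cAMP EC50, hGIPR: intracellular cAMP rise after 30 min at 37 °C read by HTRF against a standard curve, scaled between buffer alone (0%) and top control ligand concentration (100%), four-parameter fit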;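 as to Relative cAMP EC50, hGLP-1R: intracellular cAMP rise after 30 min at 37 °C read by HTRF, normalized between buffer only (0%) and maximal control ligand (100%), four-parameter variable-slope fit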
hGIPR [3] = biological target: T2, hGIPR (Homo sapiens, UniProt P48546); experiment: Functional cAMP activity in the presence of 1% HSA; conditions: read-out: cAMP Rel EC50, hGIPR
T2 sequence (P48546 22-466): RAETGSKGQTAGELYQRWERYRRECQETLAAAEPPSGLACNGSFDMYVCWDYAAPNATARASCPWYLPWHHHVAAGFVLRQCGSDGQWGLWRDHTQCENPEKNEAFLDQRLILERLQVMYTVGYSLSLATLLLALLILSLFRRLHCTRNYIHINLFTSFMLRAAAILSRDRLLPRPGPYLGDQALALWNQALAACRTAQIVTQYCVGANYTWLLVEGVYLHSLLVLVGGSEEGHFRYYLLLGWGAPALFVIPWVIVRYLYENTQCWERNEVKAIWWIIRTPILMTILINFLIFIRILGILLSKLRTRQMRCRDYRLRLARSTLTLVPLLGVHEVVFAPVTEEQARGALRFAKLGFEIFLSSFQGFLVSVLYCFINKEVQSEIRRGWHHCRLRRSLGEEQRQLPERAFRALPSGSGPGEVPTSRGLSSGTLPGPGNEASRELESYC

hGIPR [4] = biological target: T2, hGIPR; experiment: Functional cAMP activation in the presence of 0.1% casein (no HSA); conditions: read-out: Relative cAMP EC50, hGIPR;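 as to Relative cAMP EC50, hGIPR: intracellular cAMP rise after 30 min at 37 °C read by HTRF against a standard curve, scaled between buffer alone (0%) and top control ligand concentration (100%), four-parameter fit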;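 as to Relative cAMP EC50, hGLP-1R: intracellular cAMP rise after 30 min at 37 °C read by HTRF, normalized between buffer only (0%) and maximal control ligand (100%), four-parameter variable-slope fit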
Experimental: After a 30-minute incubation at 37° C., the resulting increase in intracellular cAMP is quantitatively determined using the CisBio CAMP Dynamic 2 HTRF Assay Kit (62AM4PEJ). Briefly, cAMP levels within the cell are detected by adding the cAMP-d2 conjugate in cell lysis buffer followed by the antibody anti-cAMP-Eu^3+-Cryptate, also in cell lysis buffer.
Intracellular cAMP levels are determined by extrapolation using a standard curve. Dose response curves of compounds are plotted as the percentage of stimulation normalized to minimum (buffer only) and maximum (maximum concentration of each control ligand) values and analyzed using a four parameter non-linear regression fit with a variable slope (Genedata Screener 13). EC50 is the concentration of compound causing half-maximal simulation in a dose response curve. Each relative EC50 value for the Geometric mean calculation is determined from a curve fitting.

[5] = in the presence of 0.1% casein (no HSA), geometric mean

Molecule | EC50 (hGcgR) | EC50 (human GcgR) | EC50 (hGLP-1R [1]) | EC50 (hGLP-1R [2]) | EC50 (hGIPR [3]) | EC50 (hGIPR [4]) | EC50 (hGcgR; [5]) | EC50 (hGLP-1R [2]; [5]) | EC50 (hGIPR [4]; [5])
H-Y[Aib]QGT[αMePhe(2-F)]TSD[4Pal][αMeS]I[αMeL]LD[Orn]K([γGlu-γGlu-C18 diacid])AQ[Aib][Orn]FI[dE][αMeY]LSEGGPSSGEPPPSGTGE-NH2 [Example 518] | 3.93 nM | 265 nM | 51 nM | 0.867 nM | 7.1 nM | 0.129 nM |  |  | 
CC[C@H](C)[C@H](NC(=O)[C@H](Cc1ccccc1)NC(=O)[C@H](CCCN)NC(=O)C(C)(C)NC(=O)[C@H](CCC(N)=O)NC(=O)[C@H](C)NC(=O)[C@H](CCCCNC(=O)COCCOCCNC(=O)COCCOCCNC(=O)CC[C@H](NC(=O)CCCCCCCCCCCCCCCCC(=O)O)C(=O)O)NC(=O)[C@H](CCCN)NC(=O)[C@H](CC(=O)O)NC(=O)[C@H](CC(C)C)NC(=O)[C@](C)(CC(C)C)NC(=O)[C@@H](NC(=O)[C@](C)(CO)NC(=O)[C@H](Cc1ccc(O)cc1)NC(=O)[C@H](CC(=O)O)NC(=O)[C@H](CO)NC(=O)[C@@H](NC(=O)[C@](C)(Cc1ccccc1F)NC(=O)[C@@H](NC(=O)CNC(=O)[C@H](CCC(N)=O)NC(=O)C(C)(C)NC(=O)[C@@H](N)Cc1ccc(O)cc1)[C@@H](C)O)[C@@H](C)O)[C@@H](C)CC)C(=O)N[C@H](CCC(=O)O)C(=O)N[C@@](C)(Cc1ccc(O)cc1)C(=O)N[C@@H](CC(C)C)C(=O)N[C@@H](CCC(=O)O)C(=O)N[C@@H](CCC(=O)O)C(=O)NCC(=O)NCC(=O)N1CCC[C@H]1C(=O)N[C@@H](CO)C(=O)N[C@@H](CO)C(=O)NCC(=O)N[C@@H](CCC(=O)O)C(=O)N1CCC[C@H]1C(=O)N1CCC[C@H]1C(=O)N1CCC[C@H]1C(=O)N[C@@H](CCC(=O)O)C(N)=O [Example 402] (H-Y[Aib]QGT[αMePhe(2-F)]TSDY[αMeS]I[αMeL]LD[Orn]K([AEEA-AEEA-γGlu-C18 diacid])AQ[Aib][Orn]FI[dE][αMeY]LEEGGPSSGEPPPE-NH2; N-terminus assumed) | 5.66 nM | 1030 nM | 86.6 nM | 0.725 nM | 44.9 nM | 0.123 nM |  |  | 
H-Y[Aib]QGT[αMePhe(2-F)]TSD[4Pal][αMeS]I[αMeL]LD[Orn]K([AEEA-γGlu-C18 diacid])AQ[Aib][Orn]FI[dE]YLIEGGPSSGEPPPSGTE-NH2 [Example 501] | 4.54 nM | 455 nM | 38 nM | 0.401 nM | 2.32 nM | 0.0373 nM |  |  | 
H-Y[Aib]QGT[αMePhe(2-F)]TSD[4Pal][αMeS]I[αMeL]LD[Orn]K([γGlu-γGlu-C18 diacid])AQ[Aib][Orn]FI[dE][αMeY]LAEGGPSSGEPPPSGSEE-NH2 [Example 589] | 4.11 nM | 289 nM | 44.4 nM | 0.713 nM | 3.83 nM | 0.0672 nM |  |  | 
H-Y[Aib]QGTFTSDFS[Orn][αMeL]LDKK([AEEA-γGlu-C18 diacid])AQ[Aib]AFIEYLLEGGPSSGAPP[Hyp]GGS-NH2 [Example 237] |  | 441 nM | 291 nM |  | 30.9 nM |  | 3.77 nM | 3.4 nM | 0.228 nM
H-Y[Aib]QGTFTSD[4Pal]S[Orn][αMeL]LD[Orn]K([γGlu-γGlu-C18 diacid])AQ[αMe4Pal]AFIEYLIE[Aib]GPSSGAPPPSGS-NH2 [Example 939] |  | 423 nM | 287 nM |  | 14.1 nM |  | 2.41 nM | 2.75 nM | 0.143 nM
CC[C@H](C)[C@H](NC(=O)[C@H](CO)NC(=O)[C@H](Cc1ccc(O)cc1)NC(=O)[C@H](CC(=O)O)NC(=O)[C@H](CO)NC(=O)[C@@H](NC(=O)[C@](C)(Cc1ccccc1F)NC(=O)[C@@H](NC(=O)CNC(=O)[C@H](CCC(N)=O)NC(=O)C(C)(C)NC(=O)[C@@H](N)Cc1ccc(O)cc1)[C@@H](C)O)[C@@H](C)O)C(=O)N[C@@H](CC(C)C)C(=O)N[C@@H](CC(C)C)C(=O)N[C@@H](CC(=O)O)C(=O)N[C@@H](CCCN)C(=O)N[C@@H](CCCCNC(=O)CC[C@H](NC(=O)CC[C@H](NC(=O)CCCCCCCCCCCCCCCCC(=O)O)C(=O)O)C(=O)O)C(=O)N[C@@H](C)C(=O)N[C@@H](CCC(N)=O)C(=O)NC(C)(C)C(=O)N[C@@H](C)C(=O)N[C@@H](Cc1ccccc1)C(=O)N[C@H](C(=O)N[C@H](CCC(=O)O)C(=O)N[C@@H](Cc1ccc(O)cc1)C(=O)N[C@@H](CC(C)C)C(=O)N[C@@H](CC(C)C)C(=O)N[C@@H](CCC(=O)O)C(=O)NCC(=O)NCC(=O)N1CCC[C@H]1C(=O)N[C@@H](CO)C(=O)N[C@@H](CO)C(=O)NCC(=O)N[C@@H](C)C(=O)N1CCC[C@H]1C(=O)N1CCC[C@H]1C(=O)N1CCC[C@H]1C(=O)N[C@@H](CO)C(N)=O)[C@@H](C)CC [Example 428] | 2.35 nM | 536 nM | 38.2 nM | 0.207 nM | 4.55 nM | 0.01 nM |  |  | 
CC[C@H](C)[C@H](NC(=O)[C@H](CO)NC(=O)[C@H](Cc1ccc(O)cc1)NC(=O)[C@H](CC(=O)O)NC(=O)[C@H](CO)NC(=O)[C@@H](NC(=O)[C@](C)(Cc1ccccc1)NC(=O)[C@@H](NC(=O)CNC(=O)[C@H](CCC(N)=O)NC(=O)C(C)(C)NC(=O)[C@@H](N)Cc1ccc(O)cc1)[C@@H](C)O)[C@@H](C)O)C(=O)N[C@@H](CC(C)C)C(=O)N[C@@H](CC(C)C)C(=O)N[C@@H](CC(=O)O)C(=O)N[C@@H](CCCCN)C(=O)N[C@@H](CCCCNC(=O)COCCOCCNC(=O)COCCOCCNC(=O)CC[C@H](NC(=O)CCCCCCCCCCCCCCCCC(=O)O)C(=O)O)C(=O)N[C@@H](C)C(=O)N[C@@H](CCC(N)=O)C(=O)NC(C)(C)C(=O)N[C@@H](C)C(=O)N[C@@H](Cc1ccccc1)C(=O)N[C@H](C(=O)N[C@H](CCC(=O)O)C(=O)N[C@@H](Cc1ccc(O)cc1)C(=O)N[C@@H](CC(C)C)C(=O)N[C@@H](CC(C)C)C(=O)N[C@@H](CCC(=O)O)C(=O)NCC(=O)NCC(=O)N1CCC[C@H]1C(=O)N[C@@H](CO)C(=O)N[C@@H](CO)C(=O)NCC(=O)N[C@@H](C)C(=O)N1CCC[C@H]1C(=O)N1CCC[C@H]1C(=O)N1CCC[C@H]1C(=O)N[C@@H](CO)C(N)=O)[C@@H](C)CC [Example 419] | 8.52 nM | 1650 nM | 65.5 nM | 0.615 nM | 9.47 nM | 0.0235 nM |  |  | 
H-Y[Aib]QGTFTSD[4Pal]SQ[αMeL]LDKK([γGlu-γGlu-C18 diacid])AQ[αMe4Pal]AFIE[αMe4Pal]LIE[Aib]GPSSGAPPPSGE-NH2 [Example 1120] |  | 291 nM | 171 nM |  | 9.21 nM |  | 5.17 nM | 4.5 nM | 0.096 nM
CC[C@H](C)[C@H](NC(=O)[C@H](Cc1ccccc1)NC(=O)[C@H](C)NC(=O)C(C)(C)NC(=O)[C@H](CCC(N)=O)NC(=O)[C@H](C)NC(=O)[C@H](CCCCNC(=O)COCCOCCNC(=O)CC[C@H](NC(=O)CCCCCCCCCCCCCCCCC(=O)O)C(=O)O)NC(=O)[C@H](CCCCN)NC(=O)[C@H](CC(=O)O)NC(=O)[C@H](CC(C)C)NC(=O)[C@H](CC(C)C)NC(=O)[C@@H](NC(=O)[C@](C)(CO)NC(=O)[C@H](Cc1ccc(O)cc1)NC(=O)[C@H](CC(=O)O)NC(=O)[C@H](CO)NC(=O)[C@@H](NC(=O)[C@](C)(Cc1ccccc1)NC(=O)[C@@H](NC(=O)CNC(=O)[C@H](CCC(N)=O)NC(=O)C(C)(C)NC(=O)[C@@H](N)Cc1ccc(O)cc1)[C@@H](C)O)[C@@H](C)O)[C@@H](C)CC)C(=O)N[C@@H](CCC(=O)O)C(=O)N[C@@H](Cc1ccc(O)cc1)C(=O)N[C@@H](CC(C)C)C(=O)N[C@@H](CCC(=O)O)C(=O)N[C@@H](CCC(=O)O)C(=O)NCC(=O)NCC(=O)N1CCC[C@H]1C(=O)N[C@@H](CO)C(=O)N[C@@H](CO)C(=O)NCC(=O)N[C@@H](C)C(=O)N1CCC[C@H]1C(=O)N1CCC[C@H]1C(=O)N1CCC[C@H]1C(=O)N[C@@H](CO)C(N)=O [Example 393] (H-Y[Aib]QGT[αMeF]TSDY[αMeS]ILLDKK([AEEA-γGlu-C18 diacid])AQ[Aib]AFIEYLEEGGPSSGAPPPS-NH2) | 0.947 nM | 151 nM | 29.6 nM | 0.211 nM | 12.4 nM | 0.0458 nM |  |  | 
H-Y[Aib]QGT[αMePhe(2-F)]TSDYSILLDKK([γGlu-γGlu-C18 diacid])AQ[Aib]AFIEYLEEGGPSSGAPPPEEG-NH2 [Example 471] | 2.19 nM | 181 nM | 37.9 nM | 0.317 nM | 5.45 nM | 0.0296 nM |  |  | 
H-Y[Aib]QGTFTSDFS[Orn][αMeL]LDKK([AEEA-γGlu-C18 diacid])AQ[Aib]AFIEYLLEGGPSSGEPPPSGS-NH2 [Example 131] |  | 976 nM | 984 nM |  | 91.8 nM |  | 2.64 nM | 5.51 nM | 0.416 nM
